Reference: ChEMBL document CHEMBL1201862, “PubChem BioAssay data set” (2004)
Activity calls are given as the source filed them. Cut-off read from the data, not from the text of the source, for most assays here: actives have a measured IC50 and inactives only a lower limit.

How the values were obtained:
[1] = target: T1, Intestinal-type alkaline phosphatase (Homo sapiens, UniProt P09923); assay: Dose Response confirmation of uHTS hits from a small molecule inhibitors of human intestinal alkaline phosphatase via a luminescent assay. [Related pubchem assays (depositor defined):AID2544, AID2574]; type: functional
T1 sequence (P09923 whole entry): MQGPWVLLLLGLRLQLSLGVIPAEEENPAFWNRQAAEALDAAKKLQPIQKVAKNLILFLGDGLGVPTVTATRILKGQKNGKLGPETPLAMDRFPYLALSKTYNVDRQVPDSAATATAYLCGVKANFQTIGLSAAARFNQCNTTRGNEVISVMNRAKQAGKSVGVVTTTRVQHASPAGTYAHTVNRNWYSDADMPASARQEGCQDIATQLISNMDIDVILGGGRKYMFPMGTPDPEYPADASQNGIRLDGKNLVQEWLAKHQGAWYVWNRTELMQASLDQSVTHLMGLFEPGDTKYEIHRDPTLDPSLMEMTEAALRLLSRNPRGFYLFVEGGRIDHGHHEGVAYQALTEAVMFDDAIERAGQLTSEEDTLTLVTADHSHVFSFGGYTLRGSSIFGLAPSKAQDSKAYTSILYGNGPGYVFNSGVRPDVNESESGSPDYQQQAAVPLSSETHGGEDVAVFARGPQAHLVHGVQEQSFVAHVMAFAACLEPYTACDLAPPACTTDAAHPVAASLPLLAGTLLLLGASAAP

[2] = target: T1, Intestinal-type alkaline phosphatase; assay: human intestinal alkaline phosphatase activators, dose response, biochemical, luminescence, uHTS hits (AID 463120); type: functional
HEK293 [3] = assay: SAR analysis of compounds that are cytotoxic to HEK293 - Set 2. [Related pubchem assays (depositor defined):AID1575, AID1578, AID1849, AID2001, AID2333, AID2334, AID2335, AID2337, AID2800]; type: functional, cell-based; conditions: Homo sapiens
HEK293 [4] = assay: SAR analysis of compounds that are cytotoxic to HEK293 - Set 3. [Related pubchem assays (depositor defined):AID1575, AID1578, AID1848, AID1849, AID2001, AID2333, AID2334, AID2335, AID2337, AID2469]; type: functional, cell-based; conditions: Homo sapiens
[5] = target: T2, Nucleotide-binding oligomerization domain-containing protein 2 (Homo sapiens, UniProt Q9HC29); assay: NOD2 signaling inhibitors, analog potency, SAR follow-up, cell-based, set 3 (AID 2799); type: functional
T2 sequence (Q9HC29 whole entry, the tested form may be a part): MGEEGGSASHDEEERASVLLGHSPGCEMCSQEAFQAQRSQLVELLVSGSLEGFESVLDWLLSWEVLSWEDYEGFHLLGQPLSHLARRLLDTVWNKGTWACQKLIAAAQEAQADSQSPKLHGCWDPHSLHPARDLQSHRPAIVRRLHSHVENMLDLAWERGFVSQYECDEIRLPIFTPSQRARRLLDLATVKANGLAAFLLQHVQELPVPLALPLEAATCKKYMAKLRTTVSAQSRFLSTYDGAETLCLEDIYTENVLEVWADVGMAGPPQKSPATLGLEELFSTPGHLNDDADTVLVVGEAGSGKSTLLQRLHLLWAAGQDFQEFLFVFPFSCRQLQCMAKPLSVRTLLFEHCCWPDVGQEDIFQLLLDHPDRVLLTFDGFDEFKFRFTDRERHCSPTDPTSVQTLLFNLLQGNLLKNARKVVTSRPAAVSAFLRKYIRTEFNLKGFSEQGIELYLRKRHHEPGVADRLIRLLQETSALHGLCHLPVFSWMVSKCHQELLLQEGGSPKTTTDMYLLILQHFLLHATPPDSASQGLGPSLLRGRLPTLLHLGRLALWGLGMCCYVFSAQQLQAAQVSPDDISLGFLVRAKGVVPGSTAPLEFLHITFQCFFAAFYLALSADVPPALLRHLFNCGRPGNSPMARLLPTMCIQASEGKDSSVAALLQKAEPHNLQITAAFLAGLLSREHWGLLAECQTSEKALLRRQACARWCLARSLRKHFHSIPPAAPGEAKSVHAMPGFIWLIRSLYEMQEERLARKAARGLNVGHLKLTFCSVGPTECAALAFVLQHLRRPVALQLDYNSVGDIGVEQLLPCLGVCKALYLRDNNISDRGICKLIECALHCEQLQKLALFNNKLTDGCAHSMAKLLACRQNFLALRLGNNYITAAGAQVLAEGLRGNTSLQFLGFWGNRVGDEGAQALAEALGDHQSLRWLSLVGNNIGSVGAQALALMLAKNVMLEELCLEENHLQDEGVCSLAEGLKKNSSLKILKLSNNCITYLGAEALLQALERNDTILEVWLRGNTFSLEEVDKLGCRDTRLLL

Interleukin-8 [6] = target: T3, Interleukin-8 (Homo sapiens, UniProt P10145); assay: SAR analysis of GM-Tri-DAP induced IL-8 secretion in MCF-7/NOD1 cells - Set 2. [Related pubchem assays (depositor defined):AID1575, AID1578, AID2333]; type: functional, cell-based
T3 sequence (P10145 whole entry, the tested form may be a part): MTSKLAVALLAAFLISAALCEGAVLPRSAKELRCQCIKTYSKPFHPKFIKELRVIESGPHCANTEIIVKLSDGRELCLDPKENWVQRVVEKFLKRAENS

[7] = target: T4, Nucleotide-binding oligomerization domain-containing protein 1 (Homo sapiens, UniProt Q9Y239); assay: SAR analysis of compounds that inhibit NOD1 - Set 3. [Related pubchem assays (depositor defined):AID1566, AID1575, AID1578, AID1849, AID1852, AID2333, AID2335, AID2466]; type: functional
T4 sequence (Q9Y239 whole entry, the tested form may be a part): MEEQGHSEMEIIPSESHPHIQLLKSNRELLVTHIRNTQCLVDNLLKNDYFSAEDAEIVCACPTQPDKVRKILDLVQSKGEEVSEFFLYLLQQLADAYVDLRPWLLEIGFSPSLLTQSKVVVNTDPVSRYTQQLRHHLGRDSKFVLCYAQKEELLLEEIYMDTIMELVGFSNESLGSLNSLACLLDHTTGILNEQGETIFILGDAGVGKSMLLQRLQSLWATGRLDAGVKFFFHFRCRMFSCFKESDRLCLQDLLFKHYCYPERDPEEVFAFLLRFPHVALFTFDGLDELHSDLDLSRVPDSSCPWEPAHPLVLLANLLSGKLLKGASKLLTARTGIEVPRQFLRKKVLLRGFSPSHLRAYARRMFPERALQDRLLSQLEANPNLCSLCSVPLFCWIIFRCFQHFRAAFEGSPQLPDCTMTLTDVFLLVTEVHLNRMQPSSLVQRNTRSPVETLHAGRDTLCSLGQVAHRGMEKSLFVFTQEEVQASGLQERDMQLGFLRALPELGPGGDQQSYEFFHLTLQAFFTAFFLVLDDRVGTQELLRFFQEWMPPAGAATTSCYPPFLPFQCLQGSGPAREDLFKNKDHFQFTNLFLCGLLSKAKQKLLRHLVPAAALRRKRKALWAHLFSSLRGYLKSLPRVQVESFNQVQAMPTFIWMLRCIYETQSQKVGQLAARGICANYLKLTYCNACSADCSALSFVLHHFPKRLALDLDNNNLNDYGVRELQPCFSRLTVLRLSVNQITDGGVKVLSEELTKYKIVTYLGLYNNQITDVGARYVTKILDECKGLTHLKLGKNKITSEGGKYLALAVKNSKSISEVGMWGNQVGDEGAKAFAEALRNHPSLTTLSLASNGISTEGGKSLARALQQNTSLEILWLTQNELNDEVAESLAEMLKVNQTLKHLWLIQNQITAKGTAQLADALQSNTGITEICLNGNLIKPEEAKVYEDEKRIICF

[8] = target: T4, Nucleotide-binding oligomerization domain-containing protein 1; assay: SAR analysis of NF-kappaB dependent luciferase using DAP as an inducer - Set 2. [Related pubchem assays (depositor defined):AID1566, AID1575, AID1578, AID1579, AID1849, AID1852, AID2264]; type: functional
[9] = target: T2, Nucleotide-binding oligomerization domain-containing protein 2; assay: NOD2 inhibitors, SAR follow-up, set 2 (AID 2475); type: functional
Interleukin-8 [10] = target: T3, Interleukin-8; assay: SAR analysis of Tumor necrosis factor alpha (TNF-alpha) induced IL-8 secretion in MCF-7/NOD1 cells - Set 2. [Related pubchem assays (depositor defined):AID1575, AID2250, AID2260]; type: functional, cell-based
Tumor necrosis factor = Tumor necrosis factor (Homo sapiens, UniProt P01375); assay: TNFa-triggered NF-kB activation inhibitors, SAR follow-up, cell-based, set 3 (AID 2801); type: functional
Chain of Tumor necrosis factor (P01375 whole entry): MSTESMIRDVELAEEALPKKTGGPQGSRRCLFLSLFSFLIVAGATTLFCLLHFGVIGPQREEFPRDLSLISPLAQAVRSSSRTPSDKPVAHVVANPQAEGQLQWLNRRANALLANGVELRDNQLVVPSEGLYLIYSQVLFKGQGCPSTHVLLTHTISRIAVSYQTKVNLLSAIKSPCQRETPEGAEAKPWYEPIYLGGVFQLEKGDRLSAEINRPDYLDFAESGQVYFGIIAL

[11] = target: Signal transducer and activator of transcription 3 (Homo sapiens, UniProt P40763); assay: STAT3 inhibitors, late-stage profile, late-stage follow-up, cell-based, STAT1 panel, qPCR, cytotoxicity, panel member STAT3 Inhibition (AID 2078)
Chain of Signal transducer and activator of transcription 3 (P40763 whole entry): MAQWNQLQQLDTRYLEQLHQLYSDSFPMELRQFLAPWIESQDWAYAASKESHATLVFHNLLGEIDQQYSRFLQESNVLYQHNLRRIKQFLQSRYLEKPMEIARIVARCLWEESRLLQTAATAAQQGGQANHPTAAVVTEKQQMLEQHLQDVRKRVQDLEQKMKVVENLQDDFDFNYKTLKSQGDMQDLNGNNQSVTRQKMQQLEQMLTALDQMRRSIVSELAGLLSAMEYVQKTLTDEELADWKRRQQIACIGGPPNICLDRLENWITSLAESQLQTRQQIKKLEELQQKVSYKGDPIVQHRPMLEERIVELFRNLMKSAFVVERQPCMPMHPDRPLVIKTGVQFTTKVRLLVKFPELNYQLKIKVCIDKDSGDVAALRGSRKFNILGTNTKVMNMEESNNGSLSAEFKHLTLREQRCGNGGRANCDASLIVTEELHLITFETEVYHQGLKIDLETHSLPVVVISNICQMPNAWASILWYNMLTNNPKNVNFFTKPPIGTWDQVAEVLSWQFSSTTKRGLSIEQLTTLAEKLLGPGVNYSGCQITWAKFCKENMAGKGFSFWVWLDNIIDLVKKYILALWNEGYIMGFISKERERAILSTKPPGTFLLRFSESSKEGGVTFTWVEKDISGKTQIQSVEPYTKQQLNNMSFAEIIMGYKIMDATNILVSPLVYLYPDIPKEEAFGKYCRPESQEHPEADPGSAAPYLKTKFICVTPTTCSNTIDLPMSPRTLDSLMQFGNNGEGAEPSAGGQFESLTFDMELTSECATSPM

[12] = target: Signal transducer and activator of transcription 1-alpha/beta (Homo sapiens, UniProt P42224); assay: STAT3 inhibitors, late-stage profile, late-stage follow-up, cell-based, STAT1 panel, qPCR, cytotoxicity, panel member STAT1 Inhibition (AID 2078)
Chain of Signal transducer and activator of transcription 1-alpha/beta (P42224 whole entry): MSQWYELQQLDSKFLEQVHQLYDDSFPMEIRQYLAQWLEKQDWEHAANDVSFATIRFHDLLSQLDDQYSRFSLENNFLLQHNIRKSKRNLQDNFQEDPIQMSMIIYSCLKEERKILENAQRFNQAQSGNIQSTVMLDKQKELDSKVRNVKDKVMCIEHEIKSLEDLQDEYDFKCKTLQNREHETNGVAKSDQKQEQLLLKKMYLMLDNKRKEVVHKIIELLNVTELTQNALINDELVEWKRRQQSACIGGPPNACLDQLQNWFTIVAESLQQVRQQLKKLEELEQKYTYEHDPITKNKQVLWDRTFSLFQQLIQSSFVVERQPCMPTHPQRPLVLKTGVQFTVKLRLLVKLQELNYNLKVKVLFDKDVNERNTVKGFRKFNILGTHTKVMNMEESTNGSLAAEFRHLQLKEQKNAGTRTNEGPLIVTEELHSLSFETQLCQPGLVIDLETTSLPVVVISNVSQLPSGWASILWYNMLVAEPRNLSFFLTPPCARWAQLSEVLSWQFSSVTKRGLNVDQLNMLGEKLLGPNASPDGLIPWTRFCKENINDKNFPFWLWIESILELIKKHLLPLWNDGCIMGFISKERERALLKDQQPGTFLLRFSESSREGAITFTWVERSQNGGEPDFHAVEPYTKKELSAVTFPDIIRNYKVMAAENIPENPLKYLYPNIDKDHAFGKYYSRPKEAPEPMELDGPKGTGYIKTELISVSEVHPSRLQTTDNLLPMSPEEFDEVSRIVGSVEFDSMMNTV

[13] = target: T5, Tyrosine-protein phosphatase non-receptor type 22 (Homo sapiens, UniProt Q9Y2R2); assay: SAR LYP1 Fluorescent Assay using OMFP substrate for In Vitro dose response studies - Set 3. [Related pubchem assays (depositor defined):AID1779, AID1784, AID2140, AID2686]; type: functional
T5 sequence (Q9Y2R2 whole entry): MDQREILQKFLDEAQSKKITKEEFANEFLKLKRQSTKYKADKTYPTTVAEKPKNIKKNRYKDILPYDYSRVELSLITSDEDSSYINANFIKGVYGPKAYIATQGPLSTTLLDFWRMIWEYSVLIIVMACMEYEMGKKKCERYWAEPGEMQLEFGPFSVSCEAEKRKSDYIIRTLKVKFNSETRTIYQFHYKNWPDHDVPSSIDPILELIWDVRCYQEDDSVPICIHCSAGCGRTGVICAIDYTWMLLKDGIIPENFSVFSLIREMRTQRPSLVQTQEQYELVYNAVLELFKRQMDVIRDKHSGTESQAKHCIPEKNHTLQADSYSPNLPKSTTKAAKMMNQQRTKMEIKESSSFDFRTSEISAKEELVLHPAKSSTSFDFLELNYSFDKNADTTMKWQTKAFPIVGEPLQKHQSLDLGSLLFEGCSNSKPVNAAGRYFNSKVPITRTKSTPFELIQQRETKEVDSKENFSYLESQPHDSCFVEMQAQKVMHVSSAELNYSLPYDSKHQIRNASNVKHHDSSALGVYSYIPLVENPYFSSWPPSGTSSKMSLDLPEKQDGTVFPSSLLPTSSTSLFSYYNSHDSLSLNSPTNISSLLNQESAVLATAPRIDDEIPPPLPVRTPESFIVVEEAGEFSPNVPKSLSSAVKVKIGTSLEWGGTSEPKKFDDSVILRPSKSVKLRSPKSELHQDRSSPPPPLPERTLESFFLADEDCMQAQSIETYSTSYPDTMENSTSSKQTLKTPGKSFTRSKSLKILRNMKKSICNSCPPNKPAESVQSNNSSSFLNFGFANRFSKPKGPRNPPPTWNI

[14] = target: T6, Dual specificity protein phosphatase 3 (Homo sapiens, UniProt P51452); assay: SAR VHR1 absorbance Assay for In Vitro dose response studies. [Related pubchem assays (depositor defined):AID1654, AID1661, AID1878, AID1992, AID2004]
T6 sequence (P51452 whole entry): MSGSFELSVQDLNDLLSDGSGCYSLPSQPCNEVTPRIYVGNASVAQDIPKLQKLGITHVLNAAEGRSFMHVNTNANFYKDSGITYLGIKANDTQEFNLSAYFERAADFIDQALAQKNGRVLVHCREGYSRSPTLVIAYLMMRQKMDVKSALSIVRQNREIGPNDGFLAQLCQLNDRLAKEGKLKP

[15] = target: T7, Tyrosine-protein phosphatase non-receptor type 7 (Homo sapiens, UniProt P35236); assay: redox-dependent HePTP inhibition, mechanism study, biochemical, fluorescence (AID 2068); type: functional
T7 sequence (P35236 whole entry): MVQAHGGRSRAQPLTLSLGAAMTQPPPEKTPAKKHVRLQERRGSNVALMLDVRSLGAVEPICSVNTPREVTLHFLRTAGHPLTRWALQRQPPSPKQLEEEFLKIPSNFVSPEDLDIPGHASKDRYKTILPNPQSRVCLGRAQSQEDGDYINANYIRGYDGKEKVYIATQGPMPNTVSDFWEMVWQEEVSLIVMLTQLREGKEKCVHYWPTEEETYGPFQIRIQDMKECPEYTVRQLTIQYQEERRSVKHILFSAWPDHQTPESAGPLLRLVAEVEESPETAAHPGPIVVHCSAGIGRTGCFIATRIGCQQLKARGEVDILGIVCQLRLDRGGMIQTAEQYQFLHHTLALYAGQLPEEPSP

[16] = target: T6, Dual specificity protein phosphatase 3; assay: SAR VHR1 Fluorescent Assay for In Vitro dose response studies. [Related pubchem assays (depositor defined):AID1654, AID1661, AID1878, AID1992, AID2004, AID2070, AID2085]; type: functional
[17] = target: T5, Tyrosine-protein phosphatase non-receptor type 22; assay: LYP (PTPN22) phosphatase inhibitor potency, SAR follow-up, biochemical, pCAP fluorogenic substrate, fluorescence, set 3 (AID 449727); type: functional
[18] = target: T7, Tyrosine-protein phosphatase non-receptor type 7; assay: HePTP (PTPN7) phosphatase inhibitor potency, SAR follow-up, biochemical, set 2 (AID 449736); type: functional
[19] = target: T8, Dual specificity protein phosphatase 6 (Rattus norvegicus, UniProt Q64346); type: functional;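 note: confirmatory in vitro dose-response testing of MKP-3 inhibition; recombinant His-tagged MKP-3 made in E. coli BL21 with OMFP substrate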
T8 sequence (Q64346 whole entry): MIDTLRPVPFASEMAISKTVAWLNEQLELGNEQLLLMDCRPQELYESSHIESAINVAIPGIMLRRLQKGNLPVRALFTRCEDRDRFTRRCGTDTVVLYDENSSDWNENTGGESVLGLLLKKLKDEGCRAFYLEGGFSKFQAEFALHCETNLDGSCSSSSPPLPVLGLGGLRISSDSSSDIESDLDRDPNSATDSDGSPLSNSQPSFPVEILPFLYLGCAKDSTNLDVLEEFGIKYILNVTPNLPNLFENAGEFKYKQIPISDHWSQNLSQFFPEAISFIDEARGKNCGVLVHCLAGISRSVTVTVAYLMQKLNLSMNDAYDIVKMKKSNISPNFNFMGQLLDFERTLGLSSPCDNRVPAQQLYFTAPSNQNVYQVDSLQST

[20] = target: Tyrosine-protein phosphatase non-receptor type 12 (Homo sapiens, UniProt Q05209); assay: SAR Selectivity Analysis of small molecule inhibitors of PEST using pCAP in a fluorescence assay. [Related pubchem assays (depositor defined):AID1779, AID1784, AID2135]; type: functional
Hexokinase HKDC1 = target: T9, Hexokinase HKDC1 (Homo sapiens, UniProt Q2TB90); assay: HKDC1 hexokinase activators, dose response, biochemical, W721R variant (AID 504730); type: functional
T9 sequence (Q2TB90 whole entry): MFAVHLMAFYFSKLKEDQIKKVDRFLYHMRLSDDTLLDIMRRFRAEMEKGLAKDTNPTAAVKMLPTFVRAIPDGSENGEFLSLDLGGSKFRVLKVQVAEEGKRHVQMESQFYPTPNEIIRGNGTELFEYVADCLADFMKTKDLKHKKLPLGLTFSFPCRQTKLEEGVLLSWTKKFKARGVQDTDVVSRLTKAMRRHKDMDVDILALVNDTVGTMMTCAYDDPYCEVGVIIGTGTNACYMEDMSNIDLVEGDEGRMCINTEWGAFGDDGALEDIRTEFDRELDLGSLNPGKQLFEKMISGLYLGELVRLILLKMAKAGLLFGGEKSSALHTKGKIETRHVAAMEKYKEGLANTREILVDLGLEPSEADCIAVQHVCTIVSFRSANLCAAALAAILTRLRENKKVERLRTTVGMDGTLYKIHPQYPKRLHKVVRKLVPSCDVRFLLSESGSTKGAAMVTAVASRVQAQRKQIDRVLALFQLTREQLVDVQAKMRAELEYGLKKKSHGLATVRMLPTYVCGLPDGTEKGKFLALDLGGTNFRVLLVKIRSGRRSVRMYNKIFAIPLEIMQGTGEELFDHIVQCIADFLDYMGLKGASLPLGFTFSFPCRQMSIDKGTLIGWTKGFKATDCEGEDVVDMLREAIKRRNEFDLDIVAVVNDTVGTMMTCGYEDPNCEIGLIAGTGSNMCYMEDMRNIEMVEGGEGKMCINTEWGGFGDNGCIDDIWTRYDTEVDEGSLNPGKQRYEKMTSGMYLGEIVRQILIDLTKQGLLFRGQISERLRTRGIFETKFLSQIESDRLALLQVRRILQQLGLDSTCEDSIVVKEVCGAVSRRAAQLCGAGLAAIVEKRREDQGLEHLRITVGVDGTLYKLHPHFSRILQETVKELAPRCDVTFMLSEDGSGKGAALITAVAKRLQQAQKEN

Hexokinase-1 = target: T10, Hexokinase-1 (Homo sapiens, UniProt P19367); assay: hexokinase 1 activators, dose response, selectivity assay for HKDC1 activator project, biochemical (AID 504762); type: functional
T10 sequence (P19367 whole entry): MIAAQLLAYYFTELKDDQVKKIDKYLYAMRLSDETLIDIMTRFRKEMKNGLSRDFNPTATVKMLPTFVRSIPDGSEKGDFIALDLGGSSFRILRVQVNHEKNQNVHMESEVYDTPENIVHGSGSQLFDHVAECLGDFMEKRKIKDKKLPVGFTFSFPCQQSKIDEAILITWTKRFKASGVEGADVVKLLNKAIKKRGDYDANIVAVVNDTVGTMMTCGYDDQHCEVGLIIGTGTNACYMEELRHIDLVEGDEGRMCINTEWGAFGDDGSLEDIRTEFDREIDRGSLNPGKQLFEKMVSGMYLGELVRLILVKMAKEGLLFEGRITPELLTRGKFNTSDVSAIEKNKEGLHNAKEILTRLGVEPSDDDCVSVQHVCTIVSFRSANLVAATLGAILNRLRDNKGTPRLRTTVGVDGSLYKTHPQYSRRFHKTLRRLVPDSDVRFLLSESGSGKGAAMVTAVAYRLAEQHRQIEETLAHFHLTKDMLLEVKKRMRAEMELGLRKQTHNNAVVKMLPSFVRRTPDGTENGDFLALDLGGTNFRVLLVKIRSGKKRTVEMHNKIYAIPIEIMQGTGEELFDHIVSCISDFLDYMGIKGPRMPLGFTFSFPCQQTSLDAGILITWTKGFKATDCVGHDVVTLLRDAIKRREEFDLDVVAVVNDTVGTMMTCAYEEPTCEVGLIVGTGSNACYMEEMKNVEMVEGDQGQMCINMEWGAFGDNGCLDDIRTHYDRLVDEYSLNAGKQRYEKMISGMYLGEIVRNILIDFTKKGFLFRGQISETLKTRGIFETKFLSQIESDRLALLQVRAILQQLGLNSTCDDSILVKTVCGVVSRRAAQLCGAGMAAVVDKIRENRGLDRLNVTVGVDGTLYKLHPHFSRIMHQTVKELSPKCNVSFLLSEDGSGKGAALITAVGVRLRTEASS

For `CN(Cc1ccccc1)C(=O)Nc1ccc(Cl)cc1`, the IC50 [1] was > 100 µM (inactive) and the EC50 [2] was > 100 µM (inactive).

`CC(C)Sc1nc2c(c(=O)[nH]c(=O)n2C)n1Cc1ccccc1` was tested, and the IC50 (HEK293 [3]) was > 20 µM (inactive), the IC50 (HEK293 [4]) was > 20 µM (inactive) and the IC50 [5] was > 20 µM (inactive). For the same compound, the IC50 (Interleukin-8 [6]) was 3.31 µM (active), the IC50 [7] was 1.99 µM (active) and the IC50 [8] was 18.5 µM (active). For the same compound, the IC50 [9] was 18.1 µM (active), the IC50 (Interleukin-8 [10]) was > 25 µM (inactive) and the IC50 (Tumor necrosis factor) was > 20 µM (inactive).

`OC(c1ccccc1)C1CCN(c2ncnc3sccc23)CC1` (stereo not drawn) was tested, and the IC50 [11] was 1.84 µM (active) and the IC50 [12] was > 55.7 µM (inactive).

`O=C(O)COc1ccc2ccccc2c1` was tested, and the IC50 [13] was > 100 µM (inactive), the IC50 [14] was > 100 µM (inactive) and the IC50 [15] was 54.7 µM (active). The IC50 [16] was > 99 µM (inactive), the IC50 [17] was > 100 µM (inactive) and the IC50 [18] was > 100 µM (inactive). For the same compound, the IC50 [19] was > 99 µM (inactive) and the IC50 [20] was > 100 µM (inactive).

With `CC1(C)C(=O)Nc2ccccc2N1C(=O)COC(=O)c1cc(Cl)cc(Cl)c1` the EC50 (Hexokinase HKDC1) was 49.1 µM (inactive) and the EC50 (Hexokinase-1) was 65.2 µM (inactive).
